In patent US5587463A, “Texaphyrin macrocycles and metal complexes thereof” (Board of Regents, The University of Texas System, priority 1994, dated 1996):
Like-named read-outs stand apart in the source and are kept apart here.

Columns and labels:
[1] = Optical and photophysical properties of metallotexaphyrins (laser flash photolysis, fluorescence, singlet oxygen luminescence); assay type: physicochemical; parameters: tt (triplet lifetime): unit not given here; settings: CH3 OH; for Absorption gmax (Soret-type band): first value (Soret); for Absorption gmax (Q-type band): second value (Q-type); for D^1 O2 (singlet oxygen quantum yield) / Df (fluorescence quantum yield): ±10%
Text: Finally, several complexes containing paramagnetic metal ions (e.g. Mn^II, Sm^III, and Eu^III, structures 5c -7c) were investigated.
Comparison of the initial intensity with that obtained using tetrakis (4-hydroxyphenyl)porphyrin (THPP) as photosensitizer^3b under identical conditions allowed calculation of the quantum yields for production of singlet oxygen (^.phi. 1.cndot.2).

[2] = Axial base binding of benzimidazole, 1H NMR spectral titration; settings: for conversion to six coordinate form (4bA): ca. 5×10^-3 M
Text: (§1) For a rigorously five coordinate starting cadmium complex, such as that represented schematically by structure 3A, where neither the counter anion nor adventitious ligands serves to occupy an apical coordination site, base binding can be considered to occur in accord with equations (1) and (2) shown below. Under conditions where K1 […]K2, these processes can be considered to occur sequentially, giving first a monoligated, presumably pentagonal pyramidal six coordinate species (such as 4bA), followed by a coordinatively saturated bisligated pentagonal bipyramidal product akin to 5aA. Where, however, K2 >>K1this stepwise conceptual approach is invalid. Under these conditions, it becomes easier to analyze the base binding in terms of direct formation of the bisligated material as shown in equation (3).
(§2) L+B LB K1 =[LB]/[L][B] (1)
(§3) LB+B LB2 K2 =[LB2 ]/[LB][B] (2)
(§4) L+2B LB2 K1 K2 =[LB2 ]/[L][B]^2 (3)
(§5) The ^1 H NMR titration of 3A .cndot.NO3 with BzIm or pyr-D5 was done. Rigorously purified complex 3A .cndot.NO3 was dried at 80° C. under reduced pressure (1 mmHg) for 1 day. Starting samples for titration were then prepared by dissolving this five coordinate complex (3.32 mg, 0.005 mmol) in 0.7 to 0.75 ml of CDCl3 and transferring quantitatively to an NMR tube. To such samples were then added increasing aliquots of either BzIm or pyr-D5 (as solutions of known concentration in CDCl3) and recording the chemical shift of the "meso" protons at 27^Q C. Control experiments were also carried out by adding known quantities of CF3 CO2 H, D2 O, and NH4 NO3 to similar stock solutions of 3.cndot.NO3.
Determination of Binding Constants. […] The chemical shift data obtained for the "meso" signals as a function of added BzIm were thus analyzed as such at both very low and very high conversion: Standard Scatchard (single reciprocal) plots^38 were constructed by plotting (δ-δo)/[BzIm] vs (δ-δo) according to equation 4 (which corresponds to eq. 5.13 of ref. 38), obtaining K as the absolute value of the slope and the term (δ.infin. -δo)K as the intercept.
(δ-δo)/[BzIm]=-K(δ-δo)+(δ.infi
Here δ is the observed chemical shift, δo is the initial chemical shift of the pure five or six coordinate starting complex (3A .cndot.NO3 or 4bA --NO3), δ.infin. the chemical shift calculated for the final mono- or bisligated complexes 4bA .cndot.NO3 or 5aA .cndot.NO3, K the equilibrium constant in question, and [BzIm] the concentration of free, uncomplexed benzimidazole. […] This was done in a straightforward manner according to the expressions given in equations 5 and 6, where [lig]o represents the concentration of the starting five coordinate ligand 3A .cndot.NO3.
(δ-δo)/δ.infin. -δo) at low
[BzIm].congruent.[BzIm]o -[lig]o at high [BzIm]o (6)
Using these corrected values for [BzIm], straight line Scatchard plots were obtained with R[…]0.99 and 0.98 respectively for the low and high [BzIm]o regimes giving values of K1 and K2 of 1.80×10^4 M^-1 and 12.9 M^-1 respectively.

[3] = Axial base binding of pyridine, 1H NMR spectral titration
Text: as §1, §2, §3, §4, §5
The changes in "meso" proton chemical shift as a function of added [pyr] shown in FIG. 15 indicate a clear […] of two distinct binding regimes. Moreover as expected, attempts to fit the data as a simple monoligation process (to give 6CN material) according to eq. […] This was done using the convenient iterative procedure outlined by Connors.^38 Here the equations of interest, corresponding to eqs. 4.31 and 4.32 of Connors,^38 as adopted for NMR analyses, are:
[pyr]{Δ12 /(δ-δo)-1}-K1 (7)
(δ-δo) {1+K1 [pyr]+K1 K2 [pyr]^2
where δ is the observed chemical shift, δo is the initial chemical shift of the pure five coordinate starting complex 3.cndot.NO3, All is the total chemical shift difference corresponding to the formation of the pure putative monoligated six coordinate species, Δ12 is the total chemical shift corresponding to the formation of the bisligated cationic species 5a from the initial five coordinate material, and [pyr] is the free pyridine concentration. A precise expression for [pyr] is given by equation 9,^38 where [pyr]o is the concentration total added pyridine, and [lig]o represents the concentration of the starting five coordinate ligand 3A .cndot.NO3.
[pyr]o =[pyr]+[lig]o (K1 [pyr]+2K1 K2
[pyr]^2)/(1+K1 [pyr]+K1 K2 [pyr]^2)(9)
Initial iterative solutions of eqs. 7 (plotting 1/[pyr]-K1 Δ11 /(δ-δo) vs. [pyr]{Δ12 /δ-δo)-1}, giving K1 K2 and -K1 as the slope and intercept respectively) and 8 (plotting (δ-δo) {1+K1 [pyr]+K1 K2 [pyr]^2 }/[pyr] vs. [pyr], giving K1 K2 Δ12 and K1 Δ11 as the slope and intercept respectively) were therefore made using this greatly simplifying assumption. They converged quickly to give initial, uncorrected values of K1 =1.5M^-1 and K1 K2 =308M^-2. […]

[4] = Stability to demetallation (sulfide, thiosulfate); assay type: physicochemical; settings: for demetallation by sulfide: aqueous Na2 S / excess sulfide anion
Text: The above K1 and K2 (or K1 K2) values are predicated on the assumption that the cadmium complexes under discussion are stable with regards to demetallation and that the equilibria of equations 1 and 2 (or 3) pertain under the conditions of base binding. The first of these concerns is readily apparent: If demetallation occurs, then obviously one is not studying base binding! […] The second concern is particularly important within the context of quantitative work: If, for instance, the starting complex 3.cndot.NO3 is not rigorously five coordinate, then K1 (and perhaps K2 as well) would represent an axial ligand displacement reaction rather than a pure addition process as implied above. Control experiments indicate that the assumption of initial five coordination is reasonable: Independent titrations of 3A .cndot.NO3 with NH4 NO3 and H2 O indicate that only modest and monotonic changes in the chemical shift of the "meso" signals take place over the course of adding ≥50 equivalents of these potentially adventitious ligands.^40 This means that either "complete" binding occurs at 1:1 stoichiometry (essentially ruled out in the case of H2 O on the basis of analytical data), or that these species are poorly coordinating in CHCl3 so that five coordination pertains about cadmium; the latter interpretation appearing more likely.
(§6) Attempts to demetallate complex 3A .cndot.NO3 were made. In an effort to obtain the free sp^2 bridged ligand 2A, the above complex in chloroform was stirred for several hours in the presence of sodium sulfide and independently with sodium thiosulfate. […] In the case of sodium sulfide, this critical conclusion was further supported by FAB MS: Other than the starting cationic complex 3A, no evidence was obtained for any moderate to high molecular weight volatile products in the mass spectrum. […] The rate of this process, however, is strongly pH dependent, the half-life being, for instance, on the order of several hours in the presence of ca. 0.1N HCl.

[5] = Hydrolysis in aqueous acid; assay type: physicochemical
Text: as §6

[6] = parameters: tt (triplet lifetime): unit not given here; settings: benzene, see reference 4, cited from earlier work
[7] = 1:1 methanol/water

CCC1=C(C)c2cnc3cc(C)c(C)cc3ncc3nc(cc4[n-]c(cc1n2)c(CC)c4CC)C(CC)=C3C.[Eu+3].[OH-].[OH-] [7C (OH)2]
Absorption gmax (Soret-type band) [1]: 451 nm
Absorption gmax (Q-type band) [1]: 762 nm
D^1 O2 (singlet oxygen quantum yield) [1]: < 0.05
Df (fluorescence quantum yield) [1]: < 0.001

CCC1=C(C)C2=[N+]3C1=Cc1c(CC)c(CC)c4[n]1[Cd-3]315[N+](=C2)c2ccccc2[N+]1=CC1=[N+]5C(=C4)C(CC)=C1C.O=[N+]([O-])[O-] [3A .cndot.NO3]
conversion to six coordinate form (4bA) ([2]; 0.2 molar equivalents of BzIm): roughly 20%
conversion to six coordinate form (4bA) ([2]; 1.0 molar equivalent of BzIm): 90%
K1 K2 (benzimidazole) ([2]; CDCl3, iterative approach): 1.9×10^5 M^-2
Kd ([2]; CDCl3, iterative approach, read-out: K1 (benzimidazole) (converted)): 50 µM
Kd ([2]; CDCl3, very high conversion, read-out: K2 (benzimidazole) (converted)): 76900 µM
Kd ([2]; CDCl3, very low conversion, read-out: K1 (benzimidazole) (converted)): 55.6 µM
conversion to pentagonal bipyramidal product (5aA) ([3]; 3 equivalents of pyridine): ca. 5%
conversion to pentagonal bipyramidal product (5aA) ([3]; 10 equivalents of pyridine): roughly 35%
K1 K2 (pyridine) ([3]; CDCl3, final values, estimated error ≤10%): 315 M^-2
K1 K2 (pyridine) ([3]; CDCl3, final values, estimated error ≤10%, listed as 3A.cndot.NO3): 315±30 M^-2
K1 K2 (pyridine) ([3]; initial, uncorrected): 308 M^-2
demetallation by sulfide [4]: little or no demetallation occurs
changes in optical properties on treatment with sodium sulfide or sodium thiosulfate ([4]; chloroform, several hours): No significant changes in optical properties were observed
hydrolysis in aqueous acid [5]: appears to undergo hydrolysis (at the imine residues) and hence demetallation
half-life for hydrolysis/demetallation ([5]; ca. 0.1N HCl): several hours

CCCCCC[Si](CCCCCC)(CCCCCC)O[Si]1(O[Si](CCCCCC)(CCCCCC)CCCCCC)n2c3c4cc5ccccc5cc4c2N=C2N=C(N=c4c5cc6ccccc6cc5c(n41)=NC1=NC(=N3)c3cc4ccccc4cc31)c1cc3ccccc3cc12 [SiNC, bis(trin-hexylsiloxy)(2,3-naphthalocyaninato) silicon]
Absorption gmax (first value) [6]: 310 nm
Absorption gmax (second value) [6]: 776 nm
Emission gmax [6]: 780 nm
S (= phi 1O2 / phi t) [6]: 0.90
tt (triplet lifetime) [6]: 331
Dt (triplet quantum yield) ([6]; ±5%): 0.39
D^1 O2 (singlet oxygen quantum yield) ([6]; ±10%): 0.35

CCC1=C(C)c2cnc3ccccc3ncc3nc(cc4[n-]c(cc1n2)c(CC)c4CC)C(CC)=C3C.[Cd+2].c1ccncc1.c1ccncc1 [complex 4]
demetallation by sulfide [4]: no demetallation takes place
stability relative to cadmium porphyrins ([4]; neutral conditions / base binding controls): more stable than cadmium porphyrins
hydrolysis in aqueous acid [5]: leads to hydrolysis of the macrocyle

C1=Cc2nc1c(-c1ccccc1)c1ccc([nH]1)c(-c1ccccc1)c1nc(c(-c3ccccc3)c3ccc([nH]3)c2-c2ccccc2)C=C1.[Cd].c1ccncc1 [CdTPP(pyr), reference compound]
demetallation by sulfide [4]: leads to cation loss and precipitation of CdS

CCC1=C(C)c2cnc3ccc(Cl)cc3ncc3nc(cc4[n-]c(cc1n2)c(CC)c4CC)C(CC)=C3C.O=[N+]([O-])[O-].[Cd+2] [4C NO3]
Emission gmax [1]: 788 nm
S (= phi 1O2 / phi t) [1]: 0.76
tt (triplet lifetime) ([1]; deoxygenated): 36
Absorption gmax (Soret-type band) [1]: 421 nm
Absorption gmax (Q-type band) [1]: 760 nm
Dt (triplet quantum yield) ([1]; ±5%): 0.97
D^1 O2 (singlet oxygen quantum yield) [1]: 0.74
Df (fluorescence quantum yield) [1]: 0.009

CCC1=C(C)c2cnc3ccccc3ncc3nc(cc4[n-]c(cc1n2)c(CC)c4CC)C(CC)=C3C.[Mn+2].[OH-] [5C OH]
Absorption gmax (Soret-type band) [1]: 420 nm
Absorption gmax (Q-type band) [1]: 760 nm
D^1 O2 (singlet oxygen quantum yield) [1]: < 0.05
Df (fluorescence quantum yield) [1]: < 0.001

CCC1=C(C)c2cnc3ccccc3ncc3nc(cc4[n-]c(cc1n2)c(CC)c4CC)C(CC)=C3C.[Cd+2].c1ccc2[nH]cnc2c1 [4bA]
conversion to bisligated seven coordinate form (5bA) ([2]; 10 molar equivalents of BzIm): 35%

CCC1=C(C)c2cnc3cc(C)c(C)cc3ncc3nc(cc4[n-]c(cc1n2)c(CC)c4CC)C(CC)=C3C.[OH-].[OH-].[Sm+3] [6C (OH)2]
Absorption gmax (Soret-type band) [1]: 450 nm
Absorption gmax (Q-type band) [1]: 763 nm
D^1 O2 (singlet oxygen quantum yield) [1]: < 0.05
Df (fluorescence quantum yield) [1]: < 0.001

CCC1=C(C)c2cnc3ccccc3ncc3nc(cc4[n-]c(cc1n2)c(CC)c4CC)C(CC)=C3C.[Y+3] [Y^3+ complex of texaphyrin]
half-lives for decomplexation and/or ligand decomposition [7]: exceed 3 weeks
